Results from paper PMC5282883, “Droplet-based microfluidic high-throughput screening of heterologous enzymes secreted by the yeast Yarrowia lipolytica” (Microbial Cell Factories, 2017).

What was measured:
Experiment in all cases: fluorogenic hydrolysis assay, crude supernatant
Format in all cases: biochemical
Conditions in all cases: 150 µM substrate, 50 mM acetate buffer pH 4.5, 25 °C
endoglucanase A = biological target: T1, endoglucanase A (Aspergillus niger, UniProt A2R322)
T1 construct: gene eglA; codon-optimised gene secreted by Yarrowia lipolytica strain JMY4343; crude supernatant; 26 kDa on SDS-PAGE

endo-β-1,4-xylanase C = biological target: T2, endo-β-1,4-xylanase C (Aspergillus niger, UniProt A2QFV7)
T2 construct: gene xlnC; codon-optimised gene secreted by Yarrowia lipolytica strain JMY4510; crude supernatant

endo-β-1,4-xylanase B = biological target: T3, endo-β-1,4-xylanase B (Aspergillus niger, UniProt A2Q7I0)
T3 construct: gene xlnB; codon-optimised gene secreted by Yarrowia lipolytica strain JMY4346; crude supernatant; 22 kDa on SDS-PAGE
T3 sequence (A2Q7I0 19-225): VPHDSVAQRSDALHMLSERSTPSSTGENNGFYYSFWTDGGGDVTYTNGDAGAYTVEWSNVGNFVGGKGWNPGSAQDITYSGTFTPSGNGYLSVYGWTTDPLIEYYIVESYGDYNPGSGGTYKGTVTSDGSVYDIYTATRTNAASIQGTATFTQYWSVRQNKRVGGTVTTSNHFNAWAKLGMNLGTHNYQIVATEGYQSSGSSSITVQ

T1 sequence (A2R322 17-239): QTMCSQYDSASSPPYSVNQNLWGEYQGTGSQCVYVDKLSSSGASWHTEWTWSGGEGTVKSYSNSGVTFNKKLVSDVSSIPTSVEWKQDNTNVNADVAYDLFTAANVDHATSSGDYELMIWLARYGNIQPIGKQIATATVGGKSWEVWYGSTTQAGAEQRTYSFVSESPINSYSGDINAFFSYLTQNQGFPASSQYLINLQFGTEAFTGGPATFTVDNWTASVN

| Compound | fluorogenic hydrolysis assay, crude supernatant (endoglucanase A) | fluorogenic hydrolysis assay, crude supernatant (endo-β-1,4-xylanase C) | fluorogenic hydrolysis assay, crude supernatant (endo-β-1,4-xylanase B) |
| --- | --- | --- | --- |
| O=c1cc(CS(=O)(=O)O)c2cc(F)c(O[C@@H]3O[C@H](CO)[C@@H](O[C@@H]4O[C@H](CO)[C@@H](O)[C@H](O)[C@H]4O)[C@H](O)[C@H]3O)c(F)c2o1 [β-D-cellobioside-6,8-difluoro-7-hydroxycoumarin-4-methansulfonate] | JMY4343 (egla) displayed a low activity with this substrate | – | – |
| O=c1cc(CS(=O)(=O)O)c2cc(F)c(O[C@@H]3OC[C@@H](O[C@@H]4OC[C@@H](O)[C@H](O)[C@H]4O)[C@H](O)[C@H]3O)c(F)c2o1 [β-D-xylobioside-6,8-difluoro-7-hydroxycoumarin-4-methansulfonate] | – | The JMY4346 (xlnb) and JMY4510 (xlnc) strains exhibited similar levels of endo-β-1,4-xylanase activity | The JMY4346 (xlnb) and JMY4510 (xlnc) strains exhibited similar levels of endo-β-1,4-xylanase activity |
